In ChEMBL document CHEMBL1201862, “PubChem BioAssay data set” (2004):
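48-hour exposure; five concentrations; linearly interpolated endpoints. GI50 is the concentration that inhibits growth by half.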 Active and inactive are the calls of the source. Rule as the data show it: active = GI50 up to about 1.1 µM and inactive = higher.

Legend:
Assay in all cases: growth of human tumour cells (NCI), 48 h
CAKI-1 = test system: CAKI-1
SNB-75 = test system: SNB-75
NCI-H226 = test system: NCI-H226
M14 = test system: M14
IGROV-1 = test system: IGROV-1
SK-MEL-2 = test system: SK-MEL-2
UACC-62 = test system: UACC-62
MDA-MB-435 = test system: MDA-MB-435
SNB-19 = test system: SNB-19
A498 = test system: A498
LOX IMVI = test system: LOX IMVI
NCI-H23 = test system: NCI-H23
SK-MEL-5 = test system: SK-MEL-5
SF-539 = test system: SF-539
EKVX = test system: EKVX
SF-268 = test system: SF-268
DU-145 = test system: DU-145
MCF7 = test system: MCF7
PC-3 = test system: PC-3
UACC-257 = test system: UACC-257
SR = test system: SR
OVCAR-4 = test system: OVCAR-4
HOP-92 = test system: HOP-92
RPMI-8226 = test system: RPMI-8226
HT-29 = test system: HT-29
MDA-MB-231 = test system: MDA-MB-231
Malme-3M = test system: Malme-3M
A549 = test system: A549
KM12 = test system: KM12
HL-60 = test system: HL-60
K562 = test system: K562
COLO 205 = test system: COLO 205
U-251 = test system: U-251
HCT-15 = test system: HCT-15
SK-OV-3 = test system: SK-OV-3
OVCAR-5 = test system: OVCAR-5
NCI-H522 = test system: NCI-H522
RXF 393 = test system: RXF 393
OVCAR-3 = test system: OVCAR-3
HOP-62 = test system: HOP-62
OVCAR-8 = test system: OVCAR-8
SW-620 = test system: SW-620
NCI-H460 = test system: NCI-H460
ACHN = test system: ACHN
MDA-N = test system: MDA-N
SN12C = test system: SN12C
SF-295 = test system: SF-295
SK-MEL-28 = test system: SK-MEL-28
BT-549 = test system: BT-549
HCC 2998 = test system: HCC 2998
786-0 = test system: 786-0
CCRF-CEM = test system: CCRF-CEM
TK-10 = test system: TK-10
UO-31 = test system: UO-31
HCT-116 = test system: HCT-116
T47D = test system: T47D
Hs-578T = test system: Hs-578T
MOLT-4 = test system: MOLT-4
NCI/ADR-RES = test system: NCI/ADR-RES

C=C(C)[C@@H]1CC[C@@H]2C(=CC[C@]3(C)C([C@H](C)CC/C=C(/C)C(=O)O)CC[C@@]23C)[C@@]1(C)CCC(=O)O (stereo partly drawn)
GI50 (CAKI-1): 23.8 µM (inactive)
GI50 (SNB-75): 34.4 µM (inactive)
GI50 (NCI-H226): 21.3 µM (inactive)
GI50 (M14): 29.5 µM (inactive)
GI50 (IGROV-1): 28.2 µM (inactive)
GI50 (SK-MEL-2): 20.2 µM (inactive)
GI50 (UACC-62): 20.4 µM (inactive)
GI50 (MDA-MB-435): 29.2 µM (inactive)
GI50 (SNB-19): 34 µM (inactive)
GI50 (A498): 33.3 µM (inactive)
GI50 (LOX IMVI): 19.2 µM (inactive)
GI50 (NCI-H23): 24 µM (inactive)
GI50 (SK-MEL-5): 16.9 µM (inactive)
GI50 (SF-539): 30.4 µM (inactive)
GI50 (EKVX): 36.3 µM (inactive)
GI50 (SF-268): 37.7 µM (inactive)
GI50 (DU-145): 24.2 µM (inactive)
GI50 (MCF7): 39.6 µM (inactive)
GI50 (PC-3): 24.9 µM (inactive)
GI50 (UACC-257): 23.8 µM (inactive)
GI50 (SR): 21.3 µM (inactive)
GI50 (OVCAR-4): 36.6 µM (inactive)
GI50 (HOP-92): 19.2 µM (inactive)
GI50 (RPMI-8226): 22.9 µM (inactive)
GI50 (HT-29): 21.7 µM (inactive)
GI50 (MDA-MB-231): 25.2 µM (inactive)
GI50 (Malme-3M): 25.5 µM (inactive)
GI50 (A549): 36.8 µM (inactive)
GI50 (KM12): 23.4 µM (inactive)
GI50 (HL-60): 26.8 µM (inactive)
GI50 (K562): 33 µM (inactive)
GI50 (COLO 205): 22.6 µM (inactive)
GI50 (U-251): 24.5 µM (inactive)
GI50 (HCT-15): 21.3 µM
GI50 (SK-OV-3): 37.7 µM (inactive)
GI50 (OVCAR-5): 30.5 µM (inactive)
GI50 (NCI-H522): 22.7 µM (inactive)
GI50 (RXF 393): 19.4 µM (inactive)
GI50 (OVCAR-3): 19.9 µM (inactive)
GI50 (HOP-62): 52.8 µM (inactive)
GI50 (OVCAR-8): 34.4 µM (inactive)
GI50 (SW-620): 29 µM (inactive)
GI50 (NCI-H460): 20.4 µM (inactive)
GI50 (ACHN): 19 µM (inactive)
GI50 (MDA-N): 28.3 µM (inactive)
GI50 (SN12C): 33.4 µM (inactive)
GI50 (SF-295): 30.3 µM (inactive)
GI50 (SK-MEL-28): 27.9 µM (inactive)
GI50 (BT-549): 21.6 µM (inactive)
GI50 (HCC 2998): 18.8 µM (inactive)
GI50 (786-0): 21.8 µM (inactive)
GI50 (CCRF-CEM): 21.9 µM (inactive)
GI50 (TK-10): 36.6 µM (inactive)
GI50 (UO-31): 16.7 µM (inactive)
GI50 (HCT-116): 22.3 µM (inactive)
GI50 (T47D): 45.8 µM (inactive)
GI50 (Hs-578T): 33.3 µM (inactive)

O=[N+]([O-])c1cccc(/N=N/c2c(O)ccc3ccccc23)c1
GI50 (CAKI-1): > 100 µM (inactive)
GI50 (SNB-75): 91 µM (inactive)
GI50 (M14): > 100 µM (inactive)
GI50 (IGROV-1): 94.8 µM (inactive)
GI50 (SK-MEL-2): 50.4 µM (inactive)
GI50 (UACC-62): 41.4 µM (inactive)
GI50 (MDA-MB-435): 39.1 µM (inactive)
GI50 (SNB-19): 25.4 µM (inactive)
GI50 (A498): > 100 µM (inactive)
GI50 (LOX IMVI): > 100 µM (inactive)
GI50 (NCI-H23): 70.8 µM (inactive)
GI50 (SK-MEL-5): 75.7 µM (inactive)
GI50 (MOLT-4): 85.3 µM (inactive)
GI50 (EKVX): 35.2 µM (inactive)
GI50 (SF-268): 51.4 µM (inactive)
GI50 (DU-145): > 100 µM (inactive)
GI50 (PC-3): 55 µM (inactive)
GI50 (UACC-257): > 100 µM (inactive)
GI50 (OVCAR-4): 66.8 µM (inactive)
GI50 (NCI/ADR-RES): 70 µM (inactive)
GI50 (HOP-92): 48.1 µM (inactive)
GI50 (RPMI-8226): 54.2 µM (inactive)
GI50 (HT-29): > 100 µM (inactive)
GI50 (MDA-MB-231): 56.4 µM (inactive)
GI50 (Malme-3M): 63.1 µM (inactive)
GI50 (A549): > 100 µM (inactive)
GI50 (KM12): 42.4 µM (inactive)
GI50 (K562): 69 µM (inactive)
GI50 (COLO 205): > 100 µM (inactive)
GI50 (U-251): 19.6 µM (inactive)
GI50 (HCT-15): 44.6 µM
GI50 (SK-OV-3): 35.2 µM (inactive)
GI50 (OVCAR-5): > 100 µM (inactive)
GI50 (NCI-H522): 45.1 µM (inactive)
GI50 (RXF 393): 91.2 µM (inactive)
GI50 (OVCAR-3): > 10 µM (inactive)
GI50 (HOP-62): 35 µM (inactive)
GI50 (OVCAR-8): > 100 µM (inactive)
GI50 (SW-620): 57 µM (inactive)
GI50 (MDA-N): 87.3 µM (inactive)
GI50 (SN12C): > 100 µM (inactive)
GI50 (SF-295): 31 µM (inactive)
GI50 (SK-MEL-28): 90.4 µM (inactive)
GI50 (BT-549): 43.8 µM (inactive)
GI50 (786-0): 69.7 µM (inactive)
GI50 (CCRF-CEM): 16.2 µM (inactive)
GI50 (TK-10): 44.7 µM (inactive)
GI50 (UO-31): > 100 µM (inactive)
GI50 (HCT-116): > 100 µM (inactive)
GI50 (T47D): > 100 µM (inactive)
GI50 (Hs-578T): 49.5 µM (inactive)
